# According to patent US6696460B2, “Tetrahydropyridoethers” (Atlanta Pharma AG, priority 1998, dated 2004):
# Tested on: pentagastrin-stimulated acid secretion of the perused rat stomach
# Experiment: Secretion-inhibiting action on the perfused rat stomach (pentagastrin-stimulated, in vivo)
# Conditions: anesthetized CD rat, dose 3 μmol/kg i.v.
# Text: Testing of the Secretion-Inhibiting Action on the Perfused Rat Stomach
# The abdomen of anesthetized rats (CD rat, female, 200-250 g; […] i.m. urethane) was opened after tracheotomy by means of a median upper abdominal incision and a PYC catheter was fixed transorally in the esophagus and another via the pylorus such that the ends of the tube just projected into the gastric lumen. The catheter leading from the pylorus led outwards into the right abdominal wall through a side opening.
# After thorough rinsing (about 50-100 ml), warm physiological NaCl solution at 37° C. was continuously passed through the stomach (0.5 ml/min. pH 6.8-6.9; Braun-Unita I). The pH (pH meter 632, glass electrode EA 147; φ=5 mm, Metrohm) and, by titration with a freshly prepared 0.01 N NaOH solution to pH 7 (Dosimat 665 Metrohm), the secreted HCl were determined in the effluent in each case collected at an interval of 15 minutes.
# The gastric secretion was stimulated by continuous infusion of 1 μg/kg (=1.65 ml/h) of I.v. pentagastrin (left femoral vein) about 30 min after the end of the operation (i.e after determination of 2 preliminary fractions). The substances to be tested were administered intravenously in 1 ml/kg liquid volumes 60 min after the start of the pentagastrin continuous infusion.
# The body temperature of the animals was kept at a constant 37.8-38° C. by infrared irradiation and heat pads (automatic, stepless control by means of a rectal temperature sensor).
row,Structure (SMILES),Inhibition of acid secretion [%]
1,"CO[C@H]1c2ccn3c(C)c(C)nc3c2N[C@H](c2ccccc2)[C@H]1O [Example 2, (7S, 8R, 9R)-2,3-Dimethyl-8-hydroxy-7-methoxy-9-phenyl-7,8,9,10-tetrahydro-imidazo[1,2-h]-[1,7]naphythyridine]",100
2,"COCCO[C@H]1c2ccn3c(C)c(C)nc3c2N[C@H](c2ccccc2)[C@H]1O [Example 6, (7S, 8R, 9R)-2,3-Dimethyl-8-hydroxy-7-(2-methoxyethoxy)-9-phenyl-7,8,9,10-tetrahydro-imiazo[1,2-h][1,7]naphthyridine]",100
3,"CCO[C@@H]1c2ccn3c(C)c(C)nc3c2N[C@H](c2ccccc2)[C@H]1O [Example 4, (7R, 8R, 9R)-2,3Dimethyl-7-ethoxy-8-hydroxy-phenyl-7,8,9,10-tetrahydro-imidazo[1,2-h]-[1,7]naphythryridine]",100
4,CO[C@@H]1c2ccn3c(C)c(C)nc3c2N[C@H](c2ccccc2)[C@H]1O [Example 1],100
5,CO[C@@H]1[C@@H](c2ccccc2)Nc2c(ccn3c(C)c(C)nc23)[C@H]1OC [Example 8],100

# Same assay, conditions: iv, anesthetized CD rat, dose 3 μmol/kg i.v.
row,Structure (SMILES),inhibition at 3 µmol/kg [%]
1,"Cc1nc2c3c(ccn2c1C)[C@H](OC(C)C)[C@H](O)[C@@H](c1ccccc1)N3 [Example 7, (7S, 8R, 9R)-2,3-Dimethyl-8-hydroxy-9-phenyl-7-(2-propoxy)-7,8,9,10-tetrahydro-imidazo[1,2-h][1,7]naphthyridine]",100
2,"COCCO[C@@H]1c2ccn3c(C)c(C)nc3c2N[C@H](c2ccccc2)[C@H]1O [Example 5, (7R, 8R, 9R)-2,3-Dimethyl-8-hydroxy-7-(2-methoxyethoxy)-9-phenyl-7,8,9,10-tetrahydro-imidazo[1,2-h][1,7]naphthyridine]",100
3,"CCO[C@@H]1c2ccn3c(C)c(C)nc3c2N[C@H](c2ccccc2)[C@H]1O [Example 3, (7R, 8R, 9R)-2,3-Dimethyl-7-ethoxy-8-hydroxy-9-phenyl-7,8,9,10-tetrahydro-imidazo[1,2-h]-[1,7]naphthyridine]",100

# Tested on: not given
# Experiment: not given
# Conditions: not given
row,melting point [°C],Structure (SMILES)
1,168 to 169,"Cc1nc2c3c(ccn2c1C)[C@H](OC(C)C)[C@H](O)[C@@H](c1ccccc1)N3 [Example 7, (7S, 8R, 9R)-2,3-Dimethyl-8-hydroxy-9-phenyl-7-(2-propoxy)-7,8,9,10-tetrahydro-imidazo[1,2-h][1,7]naphthyridine]"
2,171 to 172,"CO[C@@H]1c2ccn3c(C)c(C)nc3c2N[C@@H](c2ccccc2)[C@@H]1O [Example 2B, (7R, 8S, 9S)-2,3-Dimethyl-8-hydroxy-7-methoxy-9-phenyl-7,8,9,10-tetrahydro-imidazo[1,2-h]-[1,7]naphthyridine]"
3,188 to 190,"CCO[C@@H]1c2ccn3c(C)c(C)nc3c2N[C@H](c2ccccc2)[C@H]1O [Example 3, (7R, 8R, 9R)-2,3-Dimethyl-7-ethoxy-8-hydroxy-9-phenyl-7,8,9,10-tetrahydro-imidazo[1,2-h]-[1,7]naphthyridine]"
4,161 to 162,"CO[C@H]1c2ccn3c(C)c(C)nc3c2N[C@@H](c2ccccc2)[C@@H]1O [Example 1B, (7S, 8S, 9S)-2,3-Dimethyl-8-hydroxy-7-methoxy-9-phenyl-7,8,9,10-tetrahydro-imidazo[1,2-h]-[1,7]naphthyridine]"
